In patent publication US20240148709A1, “METHODS OF TREATING EYE PAIN AND EYE DISORDERS” (Aisa Pharma, Inc., priority 2022, published 2024):

Tested on: participants with SSc-RP
Assay: Scleroderma Health Assessment Questionnaire (SHAQ), Phase 2a study Part A
Format: in vivo, human
Settings: cilnidipine 10 mg and/or tadalafil 5 mg arms
Experimental: Part A—double-blind, placebo-controlled, parallel-group, dose selection, will assess the safety and efficacy of two doses of cilnidipine (10 mg and 20 mg), alone and in combination with tadalafil. A total of 36 participants will be randomized to one of six prespecified treatment arms. Refer to FIG. 1 for treatment arms in Part A of the study. Dosing last for 12 (±2) days in which participants will self-administer daily doses of assigned treatment in the morning. Each participant will take one capsule and one tablet to blind the active therapy being received.
The standard, validated, patient reported outcome measures tool for SSc patients, the SHAQ, will be collected at the time points specified in the study schedules (FIG. 2 and FIGS. 3A and 3B) to assess the participant's quality of life. The SHAQ includes a Raynaud's VAS that will also be reported separately.
Results: Patients in the study were administered the Scleroderma Health Assessment Questionnaire (SHAQ) at the time of study entry and during clinic visits following the treatment period. The study is a two-part, parallel arm design, prospective, double-blind, randomized study conducted in Australia (Flinders Medical Center). 27 patients were randomized into the first phase of the study, following which a DSMB meeting was held, which reviewed data on the primary study endpoint and key Raynaud's secondary endpoints. Data on the SHAQ was not available for the DSMB to review. The mITT population, in which any data was available post treatment was 24 patients was the analysis population for this first part of the study. The second part (i.e., part B) of the study will randomize 36 patients in a double blind, randomized, prospective, placebo controlled, crossover study. In the first part (i.e., Part A) of the study for which data is presented, patients were randomized into 6 groups, cilnidipine at two doses (10 and 20 mg) alone and in combination with tadalafil 5 mg, tadalafil 5 mg alone, and placebo. […] The DSMB recommended that the study proceed into its double blind prospective cross overpowered second phase and compare cilnidipine 20 mg alone to placebo.

CN1CC(=O)N2[C@H](c3ccc4c(c3)OCO4)c3[nH]c4ccccc4c3C[C@@H]2C1=O [Tadalafil, tadalafil]
SHAQ Finger Ulcers, Change from Baseline, Max: 1.00
SHAQ Finger Ulcers, Change from Baseline, Mean (SD): 0.250 (0.5000)
SHAQ Finger Ulcers, Change from Baseline, Median: 0.000
SHAQ Finger Ulcers, Change from Baseline, Min: 0.00
SHAQ Finger Ulcers, Change from Baseline, Q1: 0.000
SHAQ Finger Ulcers, Change from Baseline, Q3: 0.500
SHAQ Finger Ulcers, In Clinic Visit (Day 12), Max: 9.20
SHAQ Finger Ulcers, In Clinic Visit (Day 12), Mean (SD): 2.325 (4.5836)
SHAQ Finger Ulcers, In Clinic Visit (Day 12), Median: 0.050
SHAQ Finger Ulcers, In Clinic Visit (Day 12), Min: 0.00
SHAQ Finger Ulcers, In Clinic Visit (Day 12), Q1: 0.000
SHAQ Finger Ulcers, In Clinic Visit (Day 12), Q3: 4.650
SHAQ Finger Ulcers, Percent Change from Baseline, Max: 12.2%
SHAQ Finger Ulcers, Percent Change from Baseline, Mean (SD): 6.10 (8.623) %
SHAQ Finger Ulcers, Percent Change from Baseline, Median: 6.10%
SHAQ Finger Ulcers, Percent Change from Baseline, Min: 0.0%
SHAQ Finger Ulcers, Percent Change from Baseline, Q1: 0.00%
SHAQ Finger Ulcers, Percent Change from Baseline, Q3: 12.20%
SHAQ Overall Change in Severity, Change from Baseline, Max: 2.40
SHAQ Overall Change in Severity, Change from Baseline, Median: 0.700
SHAQ Overall Change in Severity, Change from Baseline, Min: −1.30
SHAQ Overall Change in Severity, Change from Baseline, Q1: −0.600
SHAQ Overall Change in Severity, Change from Baseline, Q3: 1.850
SHAQ Overall Change in Severity, In Clinic Visit (Day 12), Max: 9.10
SHAQ Overall Change in Severity, In Clinic Visit (Day 12), Mean (SD): 5.600 (4.2528)
SHAQ Overall Change in Severity, In Clinic Visit (Day 12), Median: 6.550
SHAQ Overall Change in Severity, In Clinic Visit (Day 12), Min: 0.20
SHAQ Overall Change in Severity, In Clinic Visit (Day 12), Q1: 2.200
SHAQ Overall Change in Severity, In Clinic Visit (Day 12), Q3: 9.000
SHAQ Overall Change in Severity, Percent Change from Baseline, Max: 100.0%
SHAQ Overall Change in Severity, Percent Change from Baseline, Mean (SD): 32.49 (51.568) %
SHAQ Overall Change in Severity, Percent Change from Baseline, Median: 26.790%
SHAQ Overall Change in Severity, Percent Change from Baseline, Min: −23.6%
SHAQ Overall Change in Severity, Percent Change from Baseline, Q1: −3.48%
SHAQ Overall Change in Severity, Percent Change from Baseline, Q3: 68.46%
SHAQ Standard disability index, Change from Baseline, Max: 0.00
SHAQ Standard disability index, Change from Baseline, Mean (SD): −0.063 (0.0722)
SHAQ Standard disability index, Change from Baseline, Median: −0.063
SHAQ Standard disability index, Change from Baseline, Min: −0.13
SHAQ Standard disability index, Change from Baseline, Q1: −0.125
SHAQ Standard disability index, Change from Baseline, Q3: 0.000
SHAQ Standard disability index, In Clinic Visit (Day 12), Max: 1.00
SHAQ Standard disability index, In Clinic Visit (Day 12), Mean (SD): 0.531 (0.4130)
SHAQ Standard disability index, In Clinic Visit (Day 12), Median: 0.563
SHAQ Standard disability index, In Clinic Visit (Day 12), Min: 0.00
SHAQ Standard disability index, In Clinic Visit (Day 12), Q1: 0.250
SHAQ Standard disability index, In Clinic Visit (Day 12), Q3: 0.813
SHAQ Standard disability index, Percent Change from Baseline, Max: 0.0%
SHAQ Standard disability index, Percent Change from Baseline, Mean (SD): −9.26 (8.486) %
SHAQ Standard disability index, Percent Change from Baseline, Median: −11.11%
SHAQ Standard disability index, Percent Change from Baseline, Min: −16.7%
SHAQ Standard disability index, Percent Change from Baseline, Q1: −16.67%
SHAQ Standard disability index, Percent Change from Baseline, Q3: 0.00%
SHAQ Visual Analog Scale-Breathing Problems, Change from Baseline, Max: 2.80
SHAQ Visual Analog Scale-Breathing Problems, Change from Baseline, Mean (SD): 0.500 (2.5599)
SHAQ Visual Analog Scale-Breathing Problems, Change from Baseline, Median: 1.050
SHAQ Visual Analog Scale-Breathing Problems, Change from Baseline, Min: −2.90
SHAQ Visual Analog Scale-Breathing Problems, Change from Baseline, Q1: −1.450
SHAQ Visual Analog Scale-Breathing Problems, Change from Baseline, Q3: 2.450
SHAQ Visual Analog Scale-Breathing Problems, In Clinic Visit (Day 12), Max: 9.20
SHAQ Visual Analog Scale-Breathing Problems, In Clinic Visit (Day 12), Mean (SD): 4.300 (4.8840)
SHAQ Visual Analog Scale-Breathing Problems, In Clinic Visit (Day 12), Median: 4.000
SHAQ Visual Analog Scale-Breathing Problems, In Clinic Visit (Day 12), Min: 0.00
SHAQ Visual Analog Scale-Breathing Problems, In Clinic Visit (Day 12), Q1: 0.100
SHAQ Visual Analog Scale-Breathing Problems, In Clinic Visit (Day 12), Q3: 8.500
SHAQ Visual Analog Scale-Breathing Problems, Percent Change from Baseline, Max: 56.0%
SHAQ Visual Analog Scale-Breathing Problems, Percent Change from Baseline, Mean (SD): −2.66 (79.815) %
SHAQ Visual Analog Scale-Breathing Problems, Percent Change from Baseline, Median: 29.58%
SHAQ Visual Analog Scale-Breathing Problems, Percent Change from Baseline, Min: −93.5%
SHAQ Visual Analog Scale-Breathing Problems, Percent Change from Baseline, Q1: −93.55%
SHAQ Visual Analog Scale-Breathing Problems, Percent Change from Baseline, Q3: 56.00%
